Columns and labels:
[1] = tested on: antibodies in sera from SARS patients (sera 1a, 1b, 2, 6, 37, 62, London, SARS-yellow, SARS-green); format: binding, human; set-up: Binding of serum 6 to linear peptides of protein X1 of SARS-CoV Urbani / Binding of serum 37 to linear peptides of protein X1 of SARS-CoV Urbani / Binding of serum 6 to looped/cyclic peptide (PEPSCAN-ELISA) / Binding of serum 37 to looped/cyclic peptide (PEPSCAN-ELISA) / Binding of serum 37 to looped/cyclic peptides of protein X1 of SARS-CoV Urbani / Binding of serum 6 to linear peptides of protein X2 / Binding of serum 37 to linear peptides of protein X2 / Binding of serum 37 to looped/cyclic peptides of protein X2 of SARS-CoV Urbani / Binding of serum 6 to linear peptides of protein M of SARS-CoV Urbani / Binding of serum 37 to linear peptides of protein M of SARS-CoV Urbani / Binding of serum 6 to looped/cyclic peptides of protein M of SARS-CoV Urbani / Binding of serum 37 to looped/cyclic peptides of protein M of SARS-CoV Urbani / Binding of serum 6 to linear peptides of protein X3 of SARS-CoV Urbani / Binding of serum 37 to linear peptides of protein X3 of SARS-CoV Urbani / Binding of serum 37 to looped/cyclic peptides of protein X3 of SARS-CoV Urbani / Binding of serum 6 to linear peptides of protein X4 of SARS-CoV Urbani / Binding of serum 37 to linear peptides of protein X4 of SARS-CoV Urbani / Binding of serum 37 to looped/cyclic peptides of protein X4 of SARS-CoV Urbani / Binding of serum 6 to linear peptides of protein X5 of SARS-CoV Urbani / Binding of serum 37 to linear peptides of protein X5 of SARS-CoV Urbani / Binding of serum 37 to looped/cyclic peptides of protein X5 of SARS-CoV Urbani / Binding of serum 6 to linear peptides of protein N of SARS-CoV Urbani / Binding of serum 37 to linear peptides of protein N of SARS-CoV Urbani / Binding of serum 6 to linear peptide (PEPSCAN-ELISA) / Binding of serum 1a to looped/cyclic peptides of protein N of SARS-CoV Urbani / Binding of serum 1b to looped/cyclic peptides of protein N of SARS-CoV Urbani / Binding of serum 2 to looped/cyclic peptides of protein N of SARS-CoV Urbani / Binding of serum 6 to looped/cyclic peptides of protein N of SARS-CoV Urbani / Binding of serum 37 to looped/cyclic peptides of protein N of SARS-CoV Urbani / Binding of serum 62 to looped/cyclic peptides of protein N of SARS-CoV Urbani / Binding of serum London to looped/cyclic peptides of protein N of SARS-CoV Urbani / Binding of serum SARS-green to looped/cyclic peptides of protein N of SARS-CoV Urbani: unit not given here
[2] = tested on: control sera (pooled serum of ten healthy LUMC hospital workers; commercial negative donor pooled serum from the Dutch bloodbank); format: binding, human; set-up: Binding of Control serum LUMC to linear peptides / Binding of Control serum Blood-bank to linear peptides / Binding of Control serum LUMC to looped peptides / Binding of Control Serum Blood-Bank to Looped peptides / Binding of Control serum LUMC to linear peptides of the protein M of SARS-CoV Urbani / Binding of Control serum Blood-bank to linear peptides of the protein M of SARS-CoV Urbani / Binding of Control serum LUMC to looped peptides of the protein M of SARS-CoV Urbani / Binding of Control Serum Blood-Bank to Looped peptides of the protein M of SARS-CoV Urbani: unit not given here
[3] = tested on: rabbit serum obtained by immunizing a rabbit with the SARS-CoV strain Frankfurt 1; format: binding; set-up: Binding of a rabbit serum to linear peptides / Binding of a rabbit serum to looped peptides / Rabbit serum linear peptides / Rabbit serum looped peptides / Binding of a rabbit serum to linear peptides of protein N of SARS-CoV Urbani (Rabbit serum linear peptides) / Binding of a rabbit serum to looped/cyclic peptides of protein N of SARS-CoV Urbani (Rabbit serum looped peptides): unit not given here

Sequence: LVFLWLLWPVTLACF
- Binding of serum 1a to linear peptides of protein M of SARS-CoV Urbani [1]: 0.7
- Binding of serum 1a to looped/cyclic peptides of protein M of SARS-CoV Urbani [1]: 0.6
- Binding of serum 1b to linear peptides of protein M of SARS-CoV Urbani [1]: 0.5
- Binding of serum 1b to looped/cyclic peptides of protein M of SARS-CoV Urbani [1]: 0.5
- Binding of serum 2 to linear peptides of protein M of SARS-CoV Urbani [1]: 0.4
- Binding of serum 2 to looped/cyclic peptides of protein M of SARS-CoV Urbani [1]: 0.7
- Binding of serum 6 to linear peptides of protein M of SARS-CoV Urbani [1]: 0.6
- Binding of serum 6 to looped/cyclic peptides of protein M of SARS-CoV Urbani [1]: 0.6
- Binding of serum 37 to linear peptides of protein M of SARS-CoV Urbani [1]: 0.6
- Binding of serum 37 to looped/cyclic peptides of protein M of SARS-CoV Urbani [1]: 0.7
- Binding of serum 62 to linear peptides of protein M of SARS-CoV Urbani [1]: 0.8
- Binding of serum 62 to looped/cyclic peptides of protein M of SARS-CoV Urbani [1]: 0.7
- Binding of serum London to linear peptides of protein M of SARS-CoV Urbani [1]: 0.7
- Binding of serum London to looped/cyclic peptides of protein M of SARS-CoV Urbani [1]: 0.2
- Binding of serum SARS-green to linear peptides of protein M of SARS-CoV Urbani [1]: 0.2
- Binding of serum SARS-green to looped/cyclic peptides of protein M of SARS-CoV Urbani [1]: 0.3
- Binding of serum SARS-yellow to linear peptides of protein M of SARS-CoV Urbani [1]: 0.1
- Binding of serum SARS-yellow to looped/cyclic peptides of protein M of SARS-CoV Urbani [1]: 0.4
- Binding of Control Serum Blood-Bank to Looped peptides of the protein M of SARS-CoV Urbani [2]: 0.7
- Binding of Control serum Blood-bank to linear peptides of the protein M of SARS-CoV Urbani [2]: 0.5
- Binding of Control serum LUMC to linear peptides of the protein M of SARS-CoV Urbani [2]: 0.2
- Binding of Control serum LUMC to looped peptides of the protein M of SARS-CoV Urbani [2]: 0.7
- Rabbit serum linear peptides [3]: 0.3
- Rabbit serum looped peptides [3]: 0.3

Sequence: LVIGFLFLAWIMLLQ
- Binding of serum 1a to linear peptides of protein M of SARS-CoV Urbani [1]: 0.7
- Binding of serum 1a to looped/cyclic peptides of protein M of SARS-CoV Urbani [1]: 0.7
- Binding of serum 1b to linear peptides of protein M of SARS-CoV Urbani [1]: 0.5
- Binding of serum 1b to looped/cyclic peptides of protein M of SARS-CoV Urbani [1]: 0.6
- Binding of serum 2 to linear peptides of protein M of SARS-CoV Urbani [1]: 0.5
- Binding of serum 2 to looped/cyclic peptides of protein M of SARS-CoV Urbani [1]: 0.8
- Binding of serum 6 to linear peptides of protein M of SARS-CoV Urbani [1]: 0.4
- Binding of serum 6 to looped/cyclic peptides of protein M of SARS-CoV Urbani [1]: 0.5
- Binding of serum 37 to linear peptides of protein M of SARS-CoV Urbani [1]: 0.4
- Binding of serum 37 to looped/cyclic peptides of protein M of SARS-CoV Urbani [1]: 0.7
- Binding of serum 62 to linear peptides of protein M of SARS-CoV Urbani [1]: 0.4
- Binding of serum 62 to looped/cyclic peptides of protein M of SARS-CoV Urbani [1]: 0.7
- Binding of serum London to linear peptides of protein M of SARS-CoV Urbani [1]: 0.3
- Binding of serum London to looped/cyclic peptides of protein M of SARS-CoV Urbani [1]: 0.2
- Binding of serum SARS-green to linear peptides of protein M of SARS-CoV Urbani [1]: 0.4
- Binding of serum SARS-green to looped/cyclic peptides of protein M of SARS-CoV Urbani [1]: 0.3
- Binding of serum SARS-yellow to linear peptides of protein M of SARS-CoV Urbani [1]: 0.1
- Binding of serum SARS-yellow to looped/cyclic peptides of protein M of SARS-CoV Urbani [1]: 0.7
- Binding of Control Serum Blood-Bank to Looped peptides of the protein M of SARS-CoV Urbani [2]: 0.6
- Binding of Control serum Blood-bank to linear peptides of the protein M of SARS-CoV Urbani [2]: 0.6
- Binding of Control serum LUMC to linear peptides of the protein M of SARS-CoV Urbani [2]: 0.5
- Binding of Control serum LUMC to looped peptides of the protein M of SARS-CoV Urbani [2]: 0.7
- Rabbit serum linear peptides [3]: 0.1
- Rabbit serum looped peptides [3]: 0.3

Sequence: LVLKMLHSSSLTSLL
- Binding of serum 1a to linear peptides of protein X2 [1]: 0.6
- Binding of serum 1a to looped/cyclic peptides of protein X2 of SARS-CoV Urbani [1]: 0.6
- Binding of serum 1b to linear peptides of protein X2 [1]: 0.4
- Binding of serum 1b to looped/cyclic peptides of protein X2 of SARS-CoV Urbani [1]: 0.5
- Binding of serum 2 to linear peptides of protein X2 [1]: 0.3
- Binding of serum 2 to looped/cyclic peptides of protein X2 of SARS-CoV Urbani [1]: 0.3
- Binding of serum 6 to linear peptides of protein X2 [1]: 0.3
- Binding of serum 6 to looped/cyclic peptides of protein X2 of SARS-CoV Urbani [1]: 0.4
- Binding of serum 37 to linear peptides of protein X2 [1]: 0.4
- Binding of serum 37 to looped/cyclic peptides of protein X2 of SARS-CoV Urbani [1]: 0.4
- Binding of serum 62 to linear peptides of protein X2 [1]: 0.5
- Binding of serum 62 to looped/cyclic peptides of protein X2 of SARS-CoV Urbani [1]: 0.6
- Binding of serum London to linear peptides of protein X2 [1]: 0.3
- Binding of serum London to looped/cyclic peptides of protein X2 of SARS-CoV Urbani [1]: 0.2
- Binding of serum SARS-green to linear peptides of protein X2 [1]: 0.5
- Binding of serum SARS-green to looped/cyclic peptides of protein X2 of SARS-CoV Urbani [1]: 0.3
- Binding of serum SARS-yellow to linear peptides of protein X2 [1]: 0.4
- Binding of serum SARS-yellow to looped/cyclic peptides of protein X2 of SARS-CoV Urbani [1]: 0.4
- Binding of Control Serum Blood-Bank to Looped peptides [2]: 0.7
- Binding of Control serum Blood-bank to linear peptides [2]: 0.5
- Binding of Control serum LUMC to linear peptides [2]: 0.2
- Binding of Control serum LUMC to looped peptides [2]: 0.6
- Binding of a rabbit serum to linear peptides [3]: 0.3
- Binding of a rabbit serum to looped peptides [3]: 0.4
